Assay results: patent publication US20100330177A1, “PHARMACEUTICAL COMPOSITIONS OF A COMBINATION OF METFORMIN AND A DIPEPTIDYL PEPTIDASE-IV INHIBITOR” (Merck Sharp & Dohme Corp., priority 2009, published 2010)
Structures can show the parent of a compound that is named as a salt.

What was measured:
Type 2 diabetes = conditions: oral administration, human Type 2 diabetics; cited from earlier work
[1] = in vitro dissolution profile of sitagliptin phosphate from the drug film layer; format: physicochemical; conditions: FIG. 2
Excerpt: FIG. 2 is a graph showing in vitro dissolution profiles for sitagliptin phosphate from the drug film layer in a pharmaceutical composition of the present invention compared to sitagliptin phosphate in JANUMET™ which is a marketed fixed-dose combination of immediate-release metformin hydrochloride and immediate-release sitagliptin phosphate.

| SMILES | effect on fasting glucose, postprandial glucose excursion and HbA1c (Type 2 diabetes) | dissolution compared with sitagliptin phosphate in JANUMET ([1]; sitagliptin phosphate from the drug film layer vs marketed immediate-release fixed-dose combination) | time to complete dissolution ([1]; sitagliptin phosphate from the immediate-release drug film layer of the composition) |
| --- | --- | --- | --- |
| N[C@@H](CC(=O)N1CCn2c(nnc2C(F)(F)F)C1)Cc1cc(F)c(F)cc1F [sitagliptin, (2R)-4-oxo-4-[3-(trifluoromethyl)-5,6-dihydro[1,2,4]triazolo[4,3-a]pyrazin-7(8H)-yl]-1-(2,4,5-trifluorophenyl)butan-2-amine] | reduce fasting glucose and postprandial glucose excursion in association with significantly reduced HbA1c levels | – | – |
| N[C@@H](CC(=O)N1CCn2c(nnc2C(F)(F)F)C1)Cc1cc(F)c(F)cc1F [sitagliptin phosphate, dihydrogenphosphate salt of (2R)-4-oxo-4-[3-(trifluoromethyl)-5,6-dihydro[1,2,4]triazolo[4,3-a]pyrazin-7(8H)-yl]-1-(2,4,5-trifluorophenyl)butan-2-amine] | – | comparable to that of sitagliptin phosphate in JANUMET™ | ≤ 30 min |
| Cn1c(=O)cc(N2CCC[C@@H](N)C2)n(Cc2ccccc2C#N)c1=O [alogliptin] | reduce fasting glucose and postprandial glucose excursion in association with significantly reduced HbA1c levels | – | – |
| N#C[C@@H]1CCCN1C(=O)CNC12CC3CC(CC(O)(C3)C1)C2 [vildagliptin] | reduce fasting glucose and postprandial glucose excursion in association with significantly reduced HbA1c levels | – | – |
